# Assay: Phase I safety: adverse events, adverse drug reactions, DLTs in patients with advanced solid tumors
# Type: in vivo, human
# Description: This was a phase I, open-label, non-randomized, dose-escalating first-in-human study to evaluate the safety, pharmacokinetics, antitumor activity, pharmacodynamics, and pharmacogenomics of TAS-117 in patients with advanced solid tumors. The study had three phases: a dose escalation phase (DEP), a regimen modification phase (RMP), and a safety assessment phase (SAP). The treatment cycle on each regimen lasted 21 days. The DEP used an accelerated titration and 3 + 3 design. TAS-117 was administered orally once daily (QD) on an empty stomach (1 h before or 2 h after a meal). Dosing was determined based on a 4-week repeated oral-dose toxicology study in monkeys (data on file, Taiho Pharmaceutical Co., Ltd.); the highest non-severely toxic dose was 1.2 mg/kg/day, which was converted to 3.84 mg/body/day, or 2.4 mg/m^2. Therefore, the starting dose was determined to be ≤ 2.4 mg/m^2. At dose level 1, TAS-117 was administered at 2 mg QD (Day − 2), and the dose was increased to 4 mg QD after 2 days (Day 1). The RMP was conducted according to a 3 + 3 design. During this phase, the dose regimen was changed from QD administration to intermittent dosing of daily TAS-117 with 4 days on/3 days off. TAS-117 was administered on an empty stomach. Dose-limiting toxicities (DLTs) were evaluated in Cycle 1 of the DEP and RMP. […] The RD and regimen for the SAP were determined based on the safety, pharmacokinetics, pharmacodynamics, and antitumor activity profile determined in the DEP and RMP. During the SAP, the safety and preliminary efficacy profiles of TAS-117 were assessed at the RD and recommended regimen. Three cohorts were included in this assessment. Cohort 1 included patients with endometrial cancer with a PIK3CA mutation; cohort 2 included patients with endometrial cancer with an AKT1 mutation, AKT1 amplification, or AKT2 amplification; and cohort 3 included patients with ovarian clear cell carcinoma.
# The primary endpoints were the proportion of patients who experienced DLTs in Cycle 1 of the DEP and RMP and the incidence of adverse events (AEs) and adverse drug reactions (ADRs) in the SAP. AEs and ADRs were coded using the Medical Dictionary for Regulatory Activities (MedDRA; version 24.1) and graded according to the National Cancer Institute Common Terminology Criteria for Adverse Events (CTCAE; version 4.03). Secondary endpoints were pharmacokinetic findings, changes in the ratio of phosphorylated PRAS40 (pPRAS40)/total PRAS40 from baseline, efficacy, and pharmacogenomics findings.
smiles,measurement,setting,value
C[C@]1(O)C[C@@](N)(c2ccc(-c3nc4n(c3-c3ccccc3)COc3ccncc3-4)cc2)C1 [TAS-117],Grade 3 maculopapular rash with treatment interruption and/or dose reduction,"RMP dose level 5 (32 mg), Cycle 1 and Cycle 2",two of three patients
same,DLT (grade 3 maculopapular rash) during Cycle 1,"RMP dose level 5 (32 mg), intermittent administration",one of the three patients
same,Adverse drug reactions: ALT increased,"RMP n = 10, All grade",0 (0.0) n (%)
same,Adverse drug reactions: AST increased,"RMP n = 10, All grade",1 (10.0) n (%)
same,Adverse drug reactions: Any events,"RMP n = 10, All grade",10 (100.0) n (%)
same,Adverse drug reactions: Blood AP increased,"RMP n = 10, All grade",1 (10.0) n (%)
same,Adverse drug reactions: Decreased appetite,"RMP n = 10, All grade",5 (50.0) n (%)
same,Adverse drug reactions: Diarrhea,"RMP n = 10, All grade",2 (20.0) n (%)
same,Adverse drug reactions: Dry skin,"RMP n = 10, All grade",1 (10.0) n (%)
same,Adverse drug reactions: GGT increased,"RMP n = 10, All grade",2 (20.0) n (%)
same,Adverse drug reactions: GI disorders,"RMP n = 10, All grade",8 (80.0) n (%)
same,Adverse drug reactions: General disorders and administration site conditions,"RMP n = 10, All grade",5 (50.0) n (%)
same,Adverse drug reactions: Hyperglycemia,"RMP n = 10, All grade",3 (30.0) n (%)
same,Adverse drug reactions: Investigations,"RMP n = 10, All grade",6 (60.0) n (%)
same,Adverse drug reactions: Metabolism and nutrition disorders,"RMP n = 10, All grade",5 (50.0) n (%)
same,Adverse drug reactions: Nausea,"RMP n = 10, All grade",3 (30.0) n (%)
same,Adverse drug reactions: Neutrophil count decreased,"RMP n = 10, All grade",3 (30.0) n (%)
same,Adverse drug reactions: Pruritus,"RMP n = 10, All grade",4 (40.0) n (%)
same,Adverse drug reactions: Pyrexia,"RMP n = 10, All grade",4 (40.0) n (%)
same,Adverse drug reactions: Rash maculo-papular,"RMP n = 10, All grade",9 (90.0) n (%)
same,Adverse drug reactions: Skin and SC tissue disorders,"RMP n = 10, All grade",9 (90.0) n (%)
same,Adverse drug reactions: Stomatitis,"RMP n = 10, All grade",8 (80.0) n (%)
same,Adverse drug reactions: Vomiting,"RMP n = 10, All grade",1 (10.0) n (%)
same,Adverse drug reactions: WBC count decreased,"RMP n = 10, All grade",3 (30.0) n (%)
same,Adverse events: ALT increased,"RMP n = 10, All grade",1 (10.0) n (%)
same,Adverse events: AST increased,"RMP n = 10, All grade",2 (20.0) n (%)
same,Adverse events: Any events,"RMP n = 10, All grade",10 (100.0) n (%)
same,Adverse events: Blood AP increased,"RMP n = 10, All grade",1 (10.0) n (%)
same,Adverse events: Decreased appetite,"RMP n = 10, All grade",7 (70.0) n (%)
same,Adverse events: Diarrhea,"RMP n = 10, All grade",3 (30.0) n (%)
same,Adverse events: Dry skin,"RMP n = 10, All grade",1 (10.0) n (%)
same,Adverse events: GGT increased,"RMP n = 10, All grade",2 (20.0) n (%)
same,Adverse events: GI disorders,"RMP n = 10, All grade",9 (90.0) n (%)
same,Adverse events: General disorders and administration site conditions,"RMP n = 10, All grade",9 (90.0) n (%)
same,Adverse events: Hyperglycemia,"RMP n = 10, All grade",3 (30.0) n (%)
same,Adverse events: Investigations,"RMP n = 10, All grade",7 (70.0) n (%)
same,Adverse events: Metabolism and nutrition disorders,"RMP n = 10, All grade",7 (70.0) n (%)
same,Adverse events: Nausea,"RMP n = 10, All grade",4 (40.0) n (%)
same,Adverse events: Neutrophil count decreased,"RMP n = 10, All grade",3 (30.0) n (%)
same,Adverse events: Pruritus,"RMP n = 10, All grade",4 (40.0) n (%)
same,Adverse events: Pyrexia,"RMP n = 10, All grade",6 (60.0) n (%)
same,Adverse events: Rash maculo-papular,"RMP n = 10, All grade",9 (90.0) n (%)
same,Adverse events: Skin and SC tissue disorders,"RMP n = 10, All grade",9 (90.0) n (%)
same,Adverse events: Stomatitis,"RMP n = 10, All grade",8 (80.0) n (%)
same,Adverse events: Vomiting,"RMP n = 10, All grade",2 (20.0) n (%)
same,Adverse events: WBC count decreased,"RMP n = 10, All grade",3 (30.0) n (%)
same,Adverse drug reactions: ALT increased,"RMP n = 10, ≥ Grade 3",0 (0.0) n (%)
same,Adverse drug reactions: AST increased,"RMP n = 10, ≥ Grade 3",0 (0.0) n (%)
same,Adverse drug reactions: Any events,"RMP n = 10, ≥ Grade 3",6 (60.0) n (%)
same,Adverse drug reactions: Blood AP increased,"RMP n = 10, ≥ Grade 3",0 (0.0) n (%)
same,Adverse drug reactions: Decreased appetite,"RMP n = 10, ≥ Grade 3",0 (0.0) n (%)
same,Adverse drug reactions: Diarrhea,"RMP n = 10, ≥ Grade 3",0 (0.0) n (%)
same,Adverse drug reactions: Dry skin,"RMP n = 10, ≥ Grade 3",0 (0.0) n (%)
same,Adverse drug reactions: GGT increased,"RMP n = 10, ≥ Grade 3",1 (10.0) n (%)
same,Adverse drug reactions: GI disorders,"RMP n = 10, ≥ Grade 3",0 (0.0) n (%)
same,Adverse drug reactions: General disorders and administration site conditions,"RMP n = 10, ≥ Grade 3",0 (0.0) n (%)
same,Adverse drug reactions: Hyperglycemia,"RMP n = 10, ≥ Grade 3",2 (20.0) n (%)
same,Adverse drug reactions: Investigations,"RMP n = 10, ≥ Grade 3",3 (30.0) n (%)
same,Adverse drug reactions: Metabolism and nutrition disorders,"RMP n = 10, ≥ Grade 3",2 (20.0) n (%)
same,Adverse drug reactions: Nausea,"RMP n = 10, ≥ Grade 3",0 (0.0) n (%)
same,Adverse drug reactions: Neutrophil count decreased,"RMP n = 10, ≥ Grade 3",0 (0.0) n (%)
same,Adverse drug reactions: Pruritus,"RMP n = 10, ≥ Grade 3",0 (0.0) n (%)
same,Adverse drug reactions: Pyrexia,"RMP n = 10, ≥ Grade 3",0 (0.0) n (%)
same,Adverse drug reactions: Rash maculo-papular,"RMP n = 10, ≥ Grade 3",3 (30.0) n (%)
same,Adverse drug reactions: Skin and SC tissue disorders,"RMP n = 10, ≥ Grade 3",3 (30.0) n (%)
same,Adverse drug reactions: Stomatitis,"RMP n = 10, ≥ Grade 3",0 (0.0) n (%)
same,Adverse drug reactions: Vomiting,"RMP n = 10, ≥ Grade 3",0 (0.0) n (%)
same,Adverse drug reactions: WBC count decreased,"RMP n = 10, ≥ Grade 3",2 (20.0) n (%)
same,Adverse events: ALT increased,"RMP n = 10, ≥ Grade 3",0 (0.0) n (%)
same,Adverse events: AST increased,"RMP n = 10, ≥ Grade 3",0 (0.0) n (%)
same,Adverse events: Any events,"RMP n = 10, ≥ Grade 3",7 (70.0) n (%)
same,Adverse events: Blood AP increased,"RMP n = 10, ≥ Grade 3",0 (0.0) n (%)
same,Adverse events: Decreased appetite,"RMP n = 10, ≥ Grade 3",0 (0.0) n (%)
same,Adverse events: Diarrhea,"RMP n = 10, ≥ Grade 3",1 (10.0) n (%)
same,Adverse events: Dry skin,"RMP n = 10, ≥ Grade 3",0 (0.0) n (%)
same,Adverse events: GGT increased,"RMP n = 10, ≥ Grade 3",1 (10.0) n (%)
same,Adverse events: GI disorders,"RMP n = 10, ≥ Grade 3",2 (20.0) n (%)
same,Adverse events: General disorders and administration site conditions,"RMP n = 10, ≥ Grade 3",0 (0.0) n (%)
same,Adverse events: Hyperglycemia,"RMP n = 10, ≥ Grade 3",2 (20.0) n (%)
same,Adverse events: Investigations,"RMP n = 10, ≥ Grade 3",3 (30.0) n (%)
same,Adverse events: Metabolism and nutrition disorders,"RMP n = 10, ≥ Grade 3",2 (20.0) n (%)
same,Adverse events: Nausea,"RMP n = 10, ≥ Grade 3",0 (0.0) n (%)
same,Adverse events: Neutrophil count decreased,"RMP n = 10, ≥ Grade 3",0 (0.0) n (%)
same,Adverse events: Pruritus,"RMP n = 10, ≥ Grade 3",0 (0.0) n (%)
same,Adverse events: Pyrexia,"RMP n = 10, ≥ Grade 3",0 (0.0) n (%)
same,Adverse events: Rash maculo-papular,"RMP n = 10, ≥ Grade 3",3 (30.0) n (%)
same,Adverse events: Skin and SC tissue disorders,"RMP n = 10, ≥ Grade 3",3 (30.0) n (%)
same,Adverse events: Stomatitis,"RMP n = 10, ≥ Grade 3",0 (0.0) n (%)
same,Adverse events: Vomiting,"RMP n = 10, ≥ Grade 3",0 (0.0) n (%)
same,Adverse events: WBC count decreased,"RMP n = 10, ≥ Grade 3",2 (20.0) n (%)
same,Adverse drug reactions: ALT increased,"SAP n = 43, All grade",6 (14.0) n (%)

# From article PMC11129975, “A first-in-human phase I study of TAS-117, an allosteric AKT inhibitor, in patients with advanced solid tumors” (Cancer Chemotherapy and Pharmacology, 2024)
